Series [1] is described as follows: Chemical stability under acidic conditions. The format is physicochemical. The conditions noted are these: pH 5. The procedure: The reported chemistry was carried out on a very small scale, with no detailed analysis of the purity profile of the product 1.
For series [2], the target named is T1, polyglutamoylation synthase enzyme (Homo sapiens, UniProt Q05932).
T1 sequence (Q05932 43-587): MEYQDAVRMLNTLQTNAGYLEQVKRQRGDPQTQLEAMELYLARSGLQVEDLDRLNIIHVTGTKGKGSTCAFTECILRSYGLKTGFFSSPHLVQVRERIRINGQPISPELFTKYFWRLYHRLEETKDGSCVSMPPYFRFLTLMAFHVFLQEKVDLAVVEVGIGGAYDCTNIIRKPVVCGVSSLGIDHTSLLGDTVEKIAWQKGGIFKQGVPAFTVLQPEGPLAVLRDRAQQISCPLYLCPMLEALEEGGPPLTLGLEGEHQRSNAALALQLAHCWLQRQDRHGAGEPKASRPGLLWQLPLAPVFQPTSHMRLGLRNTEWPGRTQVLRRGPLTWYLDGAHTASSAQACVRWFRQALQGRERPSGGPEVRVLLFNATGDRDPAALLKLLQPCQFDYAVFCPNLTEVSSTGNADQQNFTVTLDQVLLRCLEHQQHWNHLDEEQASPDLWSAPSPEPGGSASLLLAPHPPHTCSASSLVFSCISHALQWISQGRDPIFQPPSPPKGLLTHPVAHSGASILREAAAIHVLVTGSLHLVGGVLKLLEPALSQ
The note with it: cited from earlier work.

A further series relates to thymidilate synthase. The conditions noted are these: read-out: IC50 for the enzyme (thymidilate synthase); cited from earlier work.
Another series has as its target folate receptor α (FRα) (Homo sapiens, UniProt P15328). The conditions noted are these: read-out: Ki (affinity) for folate receptor α (FRα); cited from earlier work.
Series [3] addresses T2, reduced folate carrier protein (RFCP) (Homo sapiens, UniProt P41440).
T2 sequence (P41440 1-591): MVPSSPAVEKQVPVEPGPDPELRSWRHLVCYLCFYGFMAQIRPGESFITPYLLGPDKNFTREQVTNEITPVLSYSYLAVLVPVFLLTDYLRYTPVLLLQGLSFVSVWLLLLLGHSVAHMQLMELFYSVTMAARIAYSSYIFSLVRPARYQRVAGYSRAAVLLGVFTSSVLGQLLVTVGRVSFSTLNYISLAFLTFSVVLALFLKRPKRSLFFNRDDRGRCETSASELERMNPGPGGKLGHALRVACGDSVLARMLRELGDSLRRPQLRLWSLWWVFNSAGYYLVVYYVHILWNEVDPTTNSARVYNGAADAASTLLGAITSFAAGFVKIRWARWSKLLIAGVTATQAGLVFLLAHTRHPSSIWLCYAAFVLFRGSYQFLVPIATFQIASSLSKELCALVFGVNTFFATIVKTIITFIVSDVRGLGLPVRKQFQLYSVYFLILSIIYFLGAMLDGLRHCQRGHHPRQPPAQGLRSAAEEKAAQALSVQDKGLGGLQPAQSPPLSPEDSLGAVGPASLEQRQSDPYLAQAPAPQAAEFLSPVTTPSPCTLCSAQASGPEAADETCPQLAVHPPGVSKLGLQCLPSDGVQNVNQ
The conditions noted are these: not a substrate for RFCP; cited from earlier work.

folate receptor α (FRα), sequence (P15328 25-234, species assumed): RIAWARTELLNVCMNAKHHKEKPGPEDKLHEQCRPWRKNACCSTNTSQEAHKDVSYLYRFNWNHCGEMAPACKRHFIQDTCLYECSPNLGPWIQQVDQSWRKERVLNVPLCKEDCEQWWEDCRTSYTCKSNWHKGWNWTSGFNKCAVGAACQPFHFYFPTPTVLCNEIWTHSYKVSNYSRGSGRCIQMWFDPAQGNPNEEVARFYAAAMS

As for `C#CCN(c1ccc(C(=O)N[C@@H](CCC(=O)N[C@H](CCC(=O)O)C(=O)O)C(=O)O)cc1)[C@H]1CCc2cc3nc(CO)[nH]c(=O)c3cc21` [Compound 1, (2,R)-((4,S)-carboxy-4-(4,N-(((6S)-2-(hydroxymethyl)-4-oxo-3,4,7,8-tetrahydro-3H-cyclopenta[g]quinazolin-6-yl)-N-(prop-2-ynyl)amino)benzamido)butanamido)pentanedioic acid], in series [1], the “Stability in aqueous solution” value is reported as “limited stability”.
On to `C#CCN(c1ccc(C(=O)N[C@@H](CCC(=O)N[C@H](CCC(=O)[O-])C(=O)[O-])C(=O)[O-])cc1)[C@H]1CCc2cc3nc(CO)[nH]c(=O)c3cc21.[Na+].[Na+].[Na+]` [Compound 2, (2,R)-((4,S)-carboxy-4-(4,N-(((6S)-2-(hydroxymethyl)-4-oxo-3,4,7,8-tetrahydro-3H-cyclopenta[g]quinazolin-6-yl)-N-(prop-2-ynyl)amino)benzamido)butanamido)pentanedioic acid trisodium salt], for which the “Substrate for the polyglutamoylation synthase enzyme” value in series [2] is on record as “not a substrate”. The IC50 (in general, the point on the concentration scale where inhibition reaches its midpoint) in the series with thymidilate synthase was 3 nM. In addition, the inhibitory constant (Ki) – broadly, a dissociation constant, usually derived from enzyme kinetics or from competition with a known ligand – was 0.5 nM at folate receptor α (FRα) and above 250000 nM in series [3].

The record behind these values is patent publication US9458188B2, “Efficient peptide couplings and their use in the synthesis and isolation of a cyclopenta (G) quinazoline trisodium salt” (BTG INTERNATIONAL LIMITED, priority 2010, dated 2016).
